Data from ChEMBL document CHEMBL1154412, “In vitro activity of telavancin against gram-positive clinical isolates recently obtained in Europe” (Antimicrob Agents Chemother, 2007).
≈ marks a conversion by molar mass, not a printed value.

Assays:
[1] = tested on: Staphylococcus aureus; assay: Antimicrobial activity against methicillin-susceptible Staphylococcus aureus after 20 to 24 hrs by broth microdilution method; format: functional
[2] = tested on: Staphylococcus aureus; assay: Antimicrobial activity against methicillin-resistant Staphylococcus aureus after 20 to 24 hrs by broth microdilution method; format: functional
[3] = tested on: Staphylococcus; assay: Antimicrobial activity against methicillin-susceptible coagulase-negative Staphylococcus after 20 to 24 hrs by broth microdilution method; format: functional
[4] = tested on: Staphylococcus; assay: Antimicrobial activity against methicillin-resistant coagulase-negative Staphylococcus after 20 to 24 hrs by broth microdilution method; format: functional
[5] = tested on: Enterococcus faecalis; assay: Antimicrobial activity against vancomycin-susceptible Enterococcus faecalis after 20 to 24 hrs by broth microdilution method; format: functional
[6] = tested on: Enterococcus faecalis; assay: Antimicrobial activity against vancomycin-resistant Enterococcus faecalis after 20 to 24 hrs by broth microdilution method; format: functional
[7] = tested on: Enterococcus faecium; assay: Antibacterial activity against vancomycin-susceptible Enterococcus faecium after 20 to 24 hrs by broth microdilution method; format: functional
[8] = tested on: Enterococcus faecium; assay: Antibacterial activity against vancomycin-resistant Enterococcus faecium after 20 to 24 hrs by broth microdilution method; format: functional
[9] = tested on: Streptococcus pneumoniae; assay: Antibacterial activity against penicillin-susceptible Streptococcus pneumoniae after 20 to 24 hrs by broth microdilution method; format: functional
[10] = tested on: Streptococcus pneumoniae; assay: Antibacterial activity against penicillin-intermediate Streptococcus pneumoniae after 20 to 24 hrs by broth microdilution method; format: functional
[11] = tested on: Streptococcus pneumoniae; assay: Antibacterial activity against penicillin-resistant Streptococcus pneumoniae after 20 to 24 hrs by broth microdilution method; format: functional
[12] = tested on: Streptococcus sp. 'group A'; assay: Antimicrobial activity against Streptococcus group A after 20 to 24 hrs by broth microdilution method; format: functional
[13] = tested on: Streptococcus sp. 'group B'; assay: Antimicrobial activity against Streptococcus group B after 20 to 24 hrs by broth microdilution method; format: functional
[14] = tested on: Streptococcus viridans; assay: Antimicrobial activity against Streptococcus viridans after 20 to 24 hrs by broth microdilution method; format: functional
[15] = tested on: Homo sapiens; assay: Plasma concentration in human at 7.5 mg/kg; format: ADME, organism-based; set-up: dose 7.5 mg/kg; settings: in vivo
[16] = Protein binding in human plasma; format: ADME, cell-free; settings: read-out: PB (converted)

**Q.** What does the source list for CN[C@H](CC(C)C)C(=O)N[C@H]1C(=O)N[C@@H](CC(N)=O)C(=O)N[C@H]2C(=O)N[C@H]3C(=O)N[C@H](C(=O)N[C@H](C(=O)O)c4cc(O)cc(O)c4-c4cc3ccc4O)[C@H](O)c3ccc(c(Cl)c3)Oc3cc2cc(c3O[C@@H]2O[C@H](CO)[C@@H](O)[C@H](O)[C@H]2O[C@H]2C[C@](C)(N)[C@H](O)[C@H](C)O2)Oc2ccc(cc2Cl)[C@H]1O [VANCOMYCIN]?
**A.** MIC50 [1]: 0.5 µg/mL (≈ 0.345 µM); MIC90 [1]: 1 µg/mL (≈ 0.69 µM); MIC50 [2]: 1 µg/mL (≈ 0.69 µM); MIC90 [2]: 1 µg/mL (≈ 0.69 µM); MIC50 [3]: 1 µg/mL (≈ 0.69 µM); MIC90 [3]: 2 µg/mL (≈ 1.38 µM); MIC50 [4]: 1 µg/mL (≈ 0.69 µM); MIC90 [4]: 2 µg/mL (≈ 1.38 µM); MIC50 [5]: 2 µg/mL (≈ 1.38 µM); MIC90 [5]: 2 µg/mL (≈ 1.38 µM); MIC50 [6]: 512 µg/mL (≈ 353 µM); MIC90 [6]: > 512 µg/mL; MIC50 [7]: 1 µg/mL (≈ 0.69 µM); MIC90 [7]: 1 µg/mL (≈ 0.69 µM); MIC50 [8]: 512 µg/mL (≈ 353 µM); MIC90 [8]: 512 µg/mL (≈ 353 µM); MIC [9]: 0.25 µg/mL (≈ 0.173 µM); MIC50 [9]: 0.25 µg/mL (≈ 0.173 µM); MIC90 [9]: 0.5 µg/mL (≈ 0.345 µM); MIC [10]: 0.25 µg/mL (≈ 0.173 µM); MIC50 [10]: 0.25 µg/mL (≈ 0.173 µM); MIC90 [10]: 0.5 µg/mL (≈ 0.345 µM); MIC [11]: 0.25 µg/mL (≈ 0.173 µM); MIC50 [11]: 0.25 µg/mL (≈ 0.173 µM); MIC90 [11]: 0.5 µg/mL (≈ 0.345 µM); MIC [12]: 0.25 µg/mL (≈ 0.173 µM); MIC50 [12]: 0.25 µg/mL (≈ 0.173 µM); MIC90 [12]: 0.5 µg/mL (≈ 0.345 µM); MIC50 [13]: 0.5 µg/mL (≈ 0.345 µM); MIC90 [13]: 0.5 µg/mL (≈ 0.345 µM); MIC50 [14]: 0.5 µg/mL (≈ 0.345 µM); MIC90 [14]: 1 µg/mL (≈ 0.69 µM)

**Q.** For CCCCCCCCCCNCCN[C@@]1(C)C[C@H](O[C@H]2[C@H](Oc3c4cc5cc3Oc3ccc(cc3Cl)[C@@H](O)[C@@H](NC(=O)[C@@H](CC(C)C)NC)C(=O)N[C@@H](CC(N)=O)C(=O)N[C@H]5C(=O)N[C@H]3C(=O)N[C@H](C(=O)N[C@H](C(=O)O)c5cc(O)c(CNCP(=O)(O)O)c(O)c5-c5cc3ccc5O)[C@H](O)c3ccc(c(Cl)c3)O4)O[C@H](CO)[C@@H](O)[C@@H]2O)O[C@@H](C)[C@H]1O [TELAVANCIN], which MIC50 [1] is on record?
**A.** The MIC50 was 0.25 µg/mL (≈ 0.142 µM).

**Q.** And the MIC90 [1]?
**A.** The MIC90 was 0.25 µg/mL (≈ 0.142 µM).

**Q.** And the MIC50 [2]?
**A.** Its MIC50 is 0.25 µg/mL (≈ 0.142 µM).

**Q.** And the MIC90 [2]?
**A.** The MIC90 was 0.25 µg/mL (≈ 0.142 µM).

**Q.** What about the MIC50 [3] of the same molecule?
**A.** The MIC50 was 0.25 µg/mL (≈ 0.142 µM).

**Q.** And the MIC90 [3]?
**A.** Its MIC90 is 0.25 µg/mL (≈ 0.142 µM).

**Q.** And the MIC50 [4]?
**A.** The MIC50 was 0.25 µg/mL (≈ 0.142 µM).

**Q.** And the MIC90 [4]?
**A.** Its MIC90 is 0.25 µg/mL (≈ 0.142 µM).

**Q.** And the MIC50 [5]?
**A.** The MIC50 was 0.25 µg/mL (≈ 0.142 µM).

**Q.** What about the MIC90 [5] of the same molecule?
**A.** The MIC90 was 0.5 µg/mL (≈ 0.285 µM).

**Q.** What about the MIC50 [6] of the same molecule?
**A.** Its MIC50 is 4 µg/mL (≈ 2.28 µM).

**Q.** What about the MIC90 [6] of the same molecule?
**A.** The MIC90 was 8 µg/mL (≈ 4.56 µM).

**Q.** And the MIC50 [7]?
**A.** The MIC50 was 0.12 µg/mL (≈ 0.0684 µM).

**Q.** And the MIC90 [7]?
**A.** Its MIC90 is 0.25 µg/mL (≈ 0.142 µM).

**Q.** What about the MIC50 [8] of the same molecule?
**A.** The MIC50 was 1 µg/mL (≈ 0.57 µM).

**Q.** And the MIC90 [8]?
**A.** The MIC90 was 2 µg/mL (≈ 1.14 µM).

**Q.** And the MIC50 [9]?
**A.** The MIC50 was 0.015 µg/mL (≈ 0.00854 µM).

**Q.** And the MIC90 [9]?
**A.** Its MIC90 is 0.03 µg/mL (≈ 0.0171 µM).

**Q.** What about the MIC50 [10] of the same molecule?
**A.** The MIC50 was 0.015 µg/mL (≈ 0.00854 µM).

**Q.** And the MIC90 [10]?
**A.** The MIC90 was 0.03 µg/mL (≈ 0.0171 µM).

**Q.** What about the MIC [11] of the same molecule?
**A.** The MIC was 0.015 µg/mL (≈ 0.00854 µM).

**Q.** What about the MIC50 [11] of the same molecule?
**A.** Its MIC50 is 0.015 µg/mL (≈ 0.00854 µM).

**Q.** What about the MIC90 [11] of the same molecule?
**A.** The MIC90 was 0.03 µg/mL (≈ 0.0171 µM).

**Q.** What about the MIC [12] of the same molecule?
**A.** Its MIC is 0.03 µg/mL (≈ 0.0171 µM).

**Q.** What about the MIC50 [12] of the same molecule?
**A.** The MIC50 was 0.03 µg/mL (≈ 0.0171 µM).

**Q.** And the MIC90 [12]?
**A.** The MIC90 was 0.06 µg/mL (≈ 0.0342 µM).

**Q.** What about the MIC50 [13] of the same molecule?
**A.** Its MIC50 is 0.06 µg/mL (≈ 0.0342 µM).

**Q.** What about the MIC90 [13] of the same molecule?
**A.** Its MIC90 is 0.06 µg/mL (≈ 0.0342 µM).

**Q.** And the MIC50 [14]?
**A.** The MIC50 was 0.06 µg/mL (≈ 0.0342 µM).

**Q.** And the MIC90 [14]?
**A.** The MIC90 was 0.06 µg/mL (≈ 0.0342 µM).

**Q.** And the Cp [15]?
**A.** The Cp was 96.7 µg/mL.

**Q.** And the fraction unbound [16]?
**A.** Its fraction unbound is 0.1.

**Q.** Which results are given for CCCCCCCCCC(=O)N[C@@H](Cc1c[nH]c2ccccc12)C(=O)N[C@H](CC(N)=O)C(=O)N[C@@H](CC(=O)O)C(=O)N[C@@H]1C(=O)NCC(=O)N[C@@H](CCCN)C(=O)N[C@@H](CC(=O)O)C(=O)N[C@H](C)C(=O)N[C@@H](CC(=O)O)C(=O)NCC(=O)N[C@H](CO)C(=O)N[C@@H]([C@H](C)CC(=O)O)C(=O)N[C@@H](CC(=O)c2ccccc2N)C(=O)O[C@@H]1C?
**A.** MIC50 [1]: 0.25 µg/mL (≈ 0.154 µM); MIC90 [1]: 0.5 µg/mL (≈ 0.309 µM); MIC50 [2]: 0.5 µg/mL (≈ 0.309 µM); MIC90 [2]: 0.5 µg/mL (≈ 0.309 µM); MIC50 [3]: 0.5 µg/mL (≈ 0.309 µM); MIC90 [3]: 1 µg/mL (≈ 0.617 µM); MIC50 [4]: 0.5 µg/mL (≈ 0.309 µM); MIC90 [4]: 0.5 µg/mL (≈ 0.309 µM); MIC50 [5]: 1 µg/mL (≈ 0.617 µM); MIC90 [5]: 2 µg/mL (≈ 1.23 µM); MIC [6]: 0.5 µg/mL (≈ 0.309 µM); MIC50 [6]: 0.5 µg/mL (≈ 0.309 µM); MIC90 [6]: 2 µg/mL (≈ 1.23 µM); MIC50 [7]: 2 µg/mL (≈ 1.23 µM); MIC90 [7]: 4 µg/mL (≈ 2.47 µM); MIC50 [8]: 2 µg/mL (≈ 1.23 µM); MIC90 [8]: 2 µg/mL (≈ 1.23 µM); MIC50 [9]: 0.12 µg/mL (≈ 0.074 µM); MIC90 [9]: 0.25 µg/mL (≈ 0.154 µM); MIC50 [10]: 0.12 µg/mL (≈ 0.074 µM); MIC90 [10]: 0.25 µg/mL (≈ 0.154 µM); MIC50 [11]: 0.12 µg/mL (≈ 0.074 µM); MIC90 [11]: 0.12 µg/mL (≈ 0.074 µM); MIC50 [12]: 0.06 µg/mL (≈ 0.037 µM); MIC90 [12]: 0.06 µg/mL (≈ 0.037 µM); MIC50 [13]: 0.25 µg/mL (≈ 0.154 µM); MIC90 [13]: 0.25 µg/mL (≈ 0.154 µM); MIC50 [14]: 0.5 µg/mL (≈ 0.309 µM); MIC90 [14]: 1 µg/mL (≈ 0.617 µM)
